No end group written: not given here.
What was measured:
[1] = test system: DCIP-expressing leaves (intact); assay: DCIP in attached, intact leaves incubated in situ; type: cell-based, Nicotiana benthamiana
Method: We next confirmed that DCIP is capable of detecting successful delivery in attached, intact leaves instead of leaf discs. DCIP-expressing leaves were thus infiltrated with 100 μM R9-GFP11 solutions and allowed to incubate in situ. During this time, the infiltrated liquid would dry, rendering the effective treatment concentration difficult to compare to the above leaf disc assays. We then assessed the amount of sfGFP complementation at 4 or 24 h post infiltration with 100 μM R9-GFP11 (Fig. 4a). […] We also tested whether or not 24 h-treated cells were still competent to R9-mediated delivery; we retreated a previously 24H treated leaf with 100 μM R9-GFP11, and imaged 4 h post re-treatment. […] The limited fluorescence recovery with re-treatment could be due to an induced stress response that decreases the cell wall permeability.
Three days after agroinfiltration, DCIP-expressing leaves were infiltrated with the treatment solutions. Unless otherwise stated, an 8 mm punch was then excised from the infiltrated area and plated, abaxial side up, onto ½ MS pH 5.7 agar plates. The plates were then left to incubate under ambient conditions for 4–5 h before imaging. For cold temperature treatment, after infiltration with ice-cold solutions of R9-GFP11 and disc excision, the leaf discs were plated onto ice-cold agar and immediately transferred to a 4 °C refrigerator for incubation. After incubation, the agar plates with leaf discs were kept on ice until the moment of imaging. For in situ incubation, leaves were simply infiltrated and the plant was returned to the growing chamber for incubation. […]
Excised leaf discs were imaged on a Zeiss LSM880 laser scanning confocal microscope. Images for semi-quantitative analysis were collected using a ×20/1.0NA Plan-apochromat water immersion objective and larger field-of-views were collected using a ×5 objective. […] For quantification experiments, z-stacks were acquired with the imaging depth set to capture the epidermal layer down to the point where mCherry nuclei could no longer be detected. z-stacks from four fields of view were acquired for every treatment condition. Quantitative image analysis and downstream processing was performed using Cell Profiler 3.0. […] Cell Profiler was then used to quantify the number, mCherry intensity, GFP intensity, and red (mCherry)/green (sfGFP) ratio of the projected nuclei.
Data obtained from Cell Profiler was processed using a script written in Python 3.9. Using the Cell Profiler data, GFP positive nuclei were counted using a Python script by setting a threshold defined as a one-tailed 99% confidence interval above the mean green/red ratio in the untreated control or water infiltration control of each experiment. […]

[2] = R9-GFP11 dot blot assay (anti-GFP11) of leaf lysates, tissue stability; type: in vivo, Nicotiana benthamiana; details: 500 μM in water infiltrated, in situ, 0, 4, 8, 24 h; 12 mm disc lysed in RIPA, dot blot anti-GFP11, N = 6
Method: We infiltrated leaves with 500 μM R9-GFP11 and left the plants to incubate in situ. A higher concentration of R9-GFP11 was chosen to facilitate detection by immunoblotting. After 0, 4, 8, and 24 h of incubation, a single 12 mm leaf disc was harvested and lysed for each treatment. Two microliters of lysates were then spotted onto nitrocellulose for dot blot analysis[42] using a primary antibody raised against GFP11. […] The reduction at 24 h in the sfGFP signal is indicative of the combined intracellular and extracellular turnover of GFP11 becoming higher than the rate of delivery and complementation. […] We hypothesize that similar dynamics from apoplastic proteases[45] and intracellular degradation are at play in plants.
The third or fourth leaf of 4–5-week-old wild-type N. benthamiana was infiltrated with 500 μM R9-GFP11 in water using a needless syringe. Infiltrations were staggered such that all treatments could be harvested simultaneously for 0, 4, 8, and 24 h time points. Each treatment was performed on a separate plant and the experiment was repeated thrice. A 12 mm leaf disc was excised for each treatment using a leaf punch and flash frozen in liquid nitrogen before grinding and lysis in 20 μL RIPA buffer with 1x plant protease inhibitor cocktail (Sigma-Aldrich: P9599). The lysates were then clarified by centrifugation at 21,000 × g for 30 min. […]

## RRRRRRRRRGSGSRDHMVLHEYVNAAGIT [R9-GFP11]
[1]; 100 μM, intact leaves in situ
  time to disappearance of GFP complementation (DCIP) signal: ≤ 24 h
[1]; 100 μM, intact leaves in situ, N = 5
  percentage of sfGFP positive cells, 4 h post infiltration: relatively high percentage of sfGFP positive cells
[1]; 100 μM, intact leaves in situ, N = 5, not statistically different from non-treated control
  percentage of sfGFP-positive cells, 24 h post infiltration: returned nearly to baseline
[1]; re-treated with 100 μM, imaged 4 h post re-treatment
  delivery after re-treatment of a 24 h treated leaf: some instances of successful delivery
[2]
  time until recovered/tissue-localized peptide returns to level of non-treated control (clearance from leaf tissue): ≤ 24 h
